The values that follow come from patent US20240277796A1, “METHODS FOR INHIBITING RAS” (Revolution Medicines, Inc., priority 2021, published 2024).

The target of experiment [1] is K-Ras G13C (Homo sapiens, UniProt P01116, G13C). Description: Raf-Ras (FRET or MOA) binding assay: disruption of BRAF RBD interaction with K-Ras G13C. Particulars: with Cyclophilin A, TR-FRET; read-out: IC50 in the Raf-Ras (FRET or MOA) binding assay re: K-Ras G13C. An excerpt: Disruption of B-Raf Ras-Binding Domain (BRAF^RBD) Interaction with K-Ras by Compounds of the Invention (Also Called a FRET Assay or an MOA Assay)
Note—The following protocol describes a procedure for monitoring disruption of K-Ras G12C (GMP-PNP) binding to BRAF^RBD by a compound of the invention. This protocol may also be executed substituting other Ras proteins or nucleotides.
The purpose of this biochemical assay was to measure the ability of test compounds to facilitate ternary complex formation between a nucleotide-loaded K-Ras isoform and Cyclophilin A; the resulting ternary complex disrupts binding to a BRAF^RBD construct, inhibiting K-Ras signaling through a RAF effector. Data was reported as IC50 values.
In assay buffer containing 25 mM HEPES pH 7.3, 0.002% Tween20, 0.1% BSA, 100 mM NaCl and 5 mM MgCl2, tagless Cyclophilin A, His 6-K-Ras-GMPPNP, and GST-BRAF^RBD were combined in a 384-well assay plate at final concentrations of 25 μM, 12.5 nM and 50 nM, respectively. Compound was present in plate wells as a 10-point 3-fold dilution series starting at a final concentration of 30 μM. […] TR-FRET signal was read on a microplate reader (Ex 320 nm, Em 665/615 nm). […]
(In general: TR-FRET usually uses a lanthanide donor and a delayed reading to cut background.)

The test system of experiment [2] is SW1573. Particulars: Canon et al., Nature 575:217-223 (2019); cited from earlier work.
Experiment [3] has as its system SW1573. Particulars: Canon et al., Nature 575:217-223 (2019); cited from earlier work. This is another data set of the same source.
Experiment [4] deals with AsPC-1 (K-Ras G12D). In words: pERK potency assay, AsPC-1. Particulars: Homo sapiens, ASPC1, read-out: IC50 in the pERK potency assay with respect to AsPC-1 (K-Ras G12D). Type of experiment: cell-based. The source says:
The purpose of this assay was to measure the ability of test compounds to inhibit K-Ras in cells. Activated K-Ras induces increased phosphorylation of ERK at Threonine 202 and Tyrosine 204 (pERK). This procedure measures a decrease in cellular pERK in response to test compounds. The procedure described below in NCI-H358 cells is applicable to K-Ras G12C.
Note: This protocol may be executed substituting other cell lines to characterize inhibitors of other RAS variants, including, for example, AsPC-1 (K-Ras G12D), Capan-1 (K-Ras G12V), or NCI-H1355 (K-Ras G13C).
NCI-H358 cells were grown and maintained using media and procedures recommended by the ATCC. On the day prior to compound addition, cells were plated in 384-well cell culture plates (40 μl/well) and grown overnight in a 37° C., 5% CO2 incubator. Test compounds were prepared in 10, 3-fold dilutions in DMSO, with a high concentration of 10 mM. […]
In some experiments, cellular pERK level was determined using the AlphaLISA SureFire Ultra p-ERK1/2 Assay Kit (PerkinElmer). […] Signal was read on an Envision plate reader (PerkinElmer) using standard AlphaLISA settings. […] Signal was plotted vs. the decadal logarithm of compound concentration, and IC50 was determined by fitting a 4-parameter sigmoidal concentration response model.

Each structure is given as a SMILES string. A value given as a limit tells only on which side of the number the result lay.

K-Ras G13C, sequence (P01116 1-188 isoform P01116-2 G13C): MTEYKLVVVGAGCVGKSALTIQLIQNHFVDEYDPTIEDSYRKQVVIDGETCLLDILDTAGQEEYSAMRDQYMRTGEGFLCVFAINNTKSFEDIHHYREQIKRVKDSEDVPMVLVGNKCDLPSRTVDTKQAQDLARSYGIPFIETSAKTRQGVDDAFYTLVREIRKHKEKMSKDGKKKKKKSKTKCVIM
K-Ras G13C, sequence (P62937 whole entry partner, the tested form may be a part): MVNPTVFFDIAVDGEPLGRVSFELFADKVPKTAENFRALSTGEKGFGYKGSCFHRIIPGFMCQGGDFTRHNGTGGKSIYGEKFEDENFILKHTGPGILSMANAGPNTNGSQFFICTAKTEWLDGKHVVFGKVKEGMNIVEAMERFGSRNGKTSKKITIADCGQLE

In the case of `CCn1c(-c2cccnc2[C@H](C)OC)c2c3cc(ccc31)-c1cccc(c1)C[C@H](NC(=O)[C@@H](COC1CN(C(=O)C#CC(C)(C)N(C)C)C1)N(C)C)C(=O)N1CCC[C@H](N1)C(=O)OCC(C)(C)C2` (atropisomer, axis not shown) [EA169], the IC50 in experiment [1] is over 1.5 µM.
The same measure, in the same setting: the figure for `CCn1c(-c2cccnc2[C@H](C)OC)c2c3cc(ccc31)N1CCS[C@@H](C[C@H](NC(=O)[C@@H](COC3CN(C(=O)C#CC(C)(C)N(C)C)C3)C(C)C)C(=O)N3CCC[C@H](N3)C(=O)OCC(C)(C)C2)C1` (atropisomer, axis not shown) [EA171] is over 1.5 µM.
As to `C=CC(=O)N1CCN(c2nc(=O)n(-c3c(C)ccnc3C(C)C)c3nc(-c4c(O)cccc4F)c(F)cc23)[C@@H](C)C1` [AMG510], the “sensitivity of cell line to RAS inhibitor” value in experiment [2] is on record as “insensitive”. Also, the “sensitivity of cell line SW1573 to the inhibitor” value in experiment [3] was “insensitive”.
With `CCn1c(-c2cccnc2[C@H](C)OC)c2c3cc(ccc31)-c1csc(n1)C[C@H](NC(=O)[C@H](C1CCCC1)N1CC[C@]3(CCN(C(=O)[C@@]4(C)CN4)C3)C1)C(=O)N1CCC[C@H](N1)C(=O)OCC(C)(C)C2` [FA5], in experiment [4], the IC50 is over 8 µM.
On to `CCn1c(-c2cccnc2[C@H](C)OC)c2c3cc(ccc31)-c1cc(cc(C(F)F)c1)C[C@H](NC(=O)[C@H](C(C)C)N1CC[C@]3(CCN(C(=O)[C@@H]4N[C@@H]4C4CC4)C3)C1)C(=O)N1CCC[C@H](N1)C(=O)OCC(C)(C)C2` [FA17], for which the IC50 in experiment [4] is over 8 µM.

In general, IC50 refers to the concentration that gives 50% inhibition.
